Source: PubChem BioAssay AID248 (DTP/NCI, 2004)
Toxic doses and inconclusive results are not listed.

Tested on: L1210 leukemia ip in BDF1 mice, survival T/C
Assay: NCI In Vivo Anticancer Drug Screen. Data for tumor model L1210 Leukemia (intraperitoneal) in B6D2F1 (BDF1) mice
Details: endpoint: mean survival time, higher = longer survival
How it was run: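 Transplanted-tumor mice were given test agent; controls received vehicle only. Survival readings from the two groups were divided (treated over control).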

[1] = dose: 100.0 mg/kg/injection, schedule: Q04DX003 (ip), vehicle: saline with Tween-80
[2] = dose: 200.0 mg/kg/injection, schedule: Q04DX003 (ip), vehicle: saline with Tween-80
[3] = dose: 400.0 mg/kg/injection, schedule: Q04DX003 (ip), vehicle: saline with Tween-80
[4] = dose: 100.0 mg/kg/injection, schedule: Q04DX003 (ip), vehicle: saline
[5] = dose: 200.0 mg/kg/injection, schedule: Q04DX003 (ip), vehicle: saline
[6] = dose: 400.0 mg/kg/injection, schedule: Q04DX003 (ip), vehicle: saline

CSc1ccc(NC(=O)N(CCCl)N=O)cc1
T/C (dose: 0.7 mg/kg/injection, schedule: Q01DX001 (ip), vehicle: carboxymethylcellulose (CMC)): 109 % of control | T/C (dose: 1.5 mg/kg/injection, schedule: Q01DX001 (ip), vehicle: carboxymethylcellulose (CMC)): 112 % of control | T/C (dose: 2.0 mg/kg/injection, schedule: Q01DX009 (ip), vehicle: other): 171 % of control | T/C (dose: 2.6 mg/kg/injection, schedule: Q01DX009 (ip), vehicle: carboxymethylcellulose (CMC)): 113 % of control | T/C (dose: 4.0 mg/kg/injection, schedule: Q01DX009 (ip), vehicle: carboxymethylcellulose (CMC)): 119 % of control | T/C (dose: 4.0 mg/kg/injection, schedule: Q01DX009 (ip), vehicle: other): 180 % of control | T/C (dose: 8.0 mg/kg/injection, schedule: Q01DX001 (ip), vehicle: other): 208 % of control | T/C (dose: 8.0 mg/kg/injection, schedule: Q01DX009 (ip), vehicle: other): 170 % of control | T/C (dose: 8.3 mg/kg/injection, schedule: Q01DX001 (ip), vehicle: carboxymethylcellulose (CMC)): 175 % of control | T/C (dose: 9.0 mg/kg/injection, schedule: Q01DX009 (ip), vehicle: carboxymethylcellulose (CMC)): 156 % of control | T/C (dose: 12.0 mg/kg/injection, schedule: Q01DX001 (ip), vehicle: other): 194 % of control | T/C (dose: 12.5 mg/kg/injection, schedule: Q01DX001 (ip), vehicle: carboxymethylcellulose (CMC)): 187 % of control | T/C (dose: 18.0 mg/kg/injection, schedule: Q01DX001 (ip), vehicle: other): 101 % of control | T/C (dose: 18.7 mg/kg/injection, schedule: Q01DX001 (ip), vehicle: carboxymethylcellulose (CMC)): 211 % of control | T/C (dose: 25.0 mg/kg/injection, schedule: Q01DX001 (ip), vehicle: carboxymethylcellulose (CMC)): 94 % of control

Nc1nc(N)c(N=Nc2ccc(S(=O)(=O)O)cc2)c(N)n1
T/C [1]: 102 % of control | T/C [2]: 102 % of control | T/C [3]: 104 % of control

CCOC(=O)c1ccc2ccccc2[n+]1C
T/C (dose: 75.0 mg/kg/injection, schedule: Q01DX001 (ip), vehicle: saline): 89 % of control | T/C (dose: 150.0 mg/kg/injection, schedule: Q01DX001 (ip), vehicle: saline): 94 % of control | T/C (dose: 300.0 mg/kg/injection, schedule: Q01DX001 (ip), vehicle: saline): 91 % of control

COc1n[nH]c(N)n1
T/C (dose: 100.0 mg/kg/injection, schedule: Q04DX002 (ip), vehicle: saline with Tween-80): 122 % of control | T/C (dose: 200.0 mg/kg/injection, schedule: Q04DX002 (ip), vehicle: saline with Tween-80): 98 % of control | T/C (dose: 400.0 mg/kg/injection, schedule: Q04DX002 (ip), vehicle: saline with Tween-80): 105 % of control

NC(CC1C=CC=CC1)C(=O)O (configuration not stated)
T/C (dose: 50.0 mg/kg/injection, schedule: Q01DX001 (ip), vehicle: saline): 108 % of control | T/C (dose: 100.0 mg/kg/injection, schedule: Q01DX001 (ip), vehicle: saline): 102 % of control | T/C (dose: 200.0 mg/kg/injection, schedule: Q01DX001 (ip), vehicle: saline): 98 % of control | T/C (dose: 400.0 mg/kg/injection, schedule: Q01DX001 (ip), vehicle: saline): 96 % of control

Cc1ccc(C(=O)CCCC(=O)c2ccc(C)cc2)cc1
T/C (dose: 50.0 mg/kg/injection, schedule: Q01DX001 (ip), vehicle: other): 103 % of control | T/C (dose: 100.0 mg/kg/injection, schedule: Q01DX001 (ip), vehicle: other): 91 % of control | T/C (dose: 200.0 mg/kg/injection, schedule: Q01DX001 (ip), vehicle: other): 97 % of control | T/C (dose: 400.0 mg/kg/injection, schedule: Q01DX001 (ip), vehicle: other): 95 % of control

c1ccc(-c2nnnn2C23CC4CC(CC(C4)C2)C3)cc1
T/C [4]: 98 % of control | T/C [5]: 100 % of control | T/C [6]: 98 % of control

CCOC(=O)c1cc(C)nnc1C(=O)OCC
T/C (dose: 100.0 mg/kg/injection, schedule: Q01DX009 (ip), vehicle: saline with Tween-80): 104 % of control | T/C (dose: 100.0 mg/kg/injection, schedule: Q01DX009 (ip), vehicle: saline): 100 % of control | T/C [1]: 97 % of control | T/C [4]: 107 % of control | T/C (dose: 200.0 mg/kg/injection, schedule: Q01DX009 (ip), vehicle: saline with Tween-80): 104 % of control | T/C (dose: 200.0 mg/kg/injection, schedule: Q01DX009 (ip), vehicle: saline): 103 % of control | T/C [2]: 106 % of control | T/C [5]: 112 % of control | T/C (dose: 400.0 mg/kg/injection, schedule: Q01DX009 (ip), vehicle: saline with Tween-80): 103 % of control | T/C (dose: 400.0 mg/kg/injection, schedule: Q01DX009 (ip), vehicle: saline): 101 % of control | T/C [3]: 101 % of control | T/C [6]: 98 % of control
